Source: ChEMBL document CHEMBL1201862, “PubChem BioAssay data set” (2004)
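Step 1: Grow cells in 96-well plates. Step 2: Expose to compound for 48 hours at 5 concentrations. Step 3: Interpolate endpoints linearly; if unreached, use highest concentration. At the GI50, growth is halved.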 Active and inactive are the calls of the source. Rule as the data show it: active = GI50 up to about 1.1 µM and inactive = higher.

What was measured:
Test in all cases: NCI tumour cell line growth inhibition, 48 h
[1] = test system: U-251
[2] = test system: OVCAR-4
[3] = test system: SF-295
[4] = test system: NCI-H226
[5] = test system: SR
[6] = test system: SK-MEL-5
[7] = test system: CAKI-1
[8] = test system: LOX IMVI
[9] = test system: SN12C
[10] = test system: KM12
[11] = test system: OVCAR-5
[12] = test system: NCI/ADR-RES
[13] = test system: SK-MEL-28
[14] = test system: UACC-62
[15] = test system: SF-268
[16] = test system: PC-3
[17] = test system: SF-539
[18] = test system: NCI-H23
[19] = test system: EKVX
[20] = test system: HOP-62

SMILES | GI50 [1] | GI50 [2] | GI50 [3] | GI50 [4] | GI50 [5] | GI50 [6] | GI50 [7] | GI50 [8] | GI50 [9] | GI50 [10] | GI50 [11] | GI50 [12] | GI50 [13] | GI50 [14] | GI50 [15] | GI50 [16] | GI50 [17] | GI50 [18] | GI50 [19] | GI50 [20]
CC(C)=CC(O)C/C(C)=C/CC/C(C)=C/CCC1(C)C(CCCO)/C(=C(/C)C=O)CCC1(C)O (stereo not given) | 34 µM (inactive) | 25.5 µM (inactive) | 28.8 µM (inactive) | 74.3 µM (inactive) | 37 µM (inactive) | 43.9 µM (inactive) | 41.9 µM (inactive) | 32.5 µM (inactive) | 31.9 µM (inactive) | 22.2 µM (inactive) | > 100 µM (inactive) | 65.3 µM (inactive) | 29.6 µM (inactive) | 35.9 µM (inactive) | 40.5 µM (inactive) | 44.8 µM (inactive) | 25.1 µM (inactive) | 20 µM (inactive) | 27.5 µM (inactive) | 25.9 µM (inactive)
c1ccc(CN2CCC(CNc3ncnc4ccccc34)C2)cc1 (stereo not given) | 76.9 µM (inactive) | 35.8 µM (inactive) | 51.4 µM (inactive) | 76.9 µM (inactive) | 17.2 µM (inactive) | 21.2 µM (inactive) | > 100 µM (inactive) | 45.3 µM (inactive) | 98.6 µM (inactive) | > 100 µM (inactive) | > 100 µM (inactive) | 61.9 µM (inactive) | 25.9 µM (inactive) | > 100 µM (inactive) | 51.5 µM (inactive) | 95.3 µM (inactive) | 68.5 µM (inactive) | 40.3 µM (inactive) | 25.1 µM (inactive) | > 100 µM (inactive)
CN(C)/N=C1/CCC(C(F)(F)F)(C(F)(F)F)O1 | 39 µM (inactive) | 47.6 µM (inactive) | 39.5 µM (inactive) | 26.3 µM (inactive) | 17.6 µM (inactive) | 21.9 µM (inactive) | 41 µM (inactive) | 33.6 µM (inactive) | 27.8 µM (inactive) | 20.7 µM (inactive) | 58.1 µM (inactive) | 26.6 µM (inactive) | 39.6 µM (inactive) | 28.1 µM (inactive) | 43.5 µM (inactive) | 28.9 µM (inactive) | 45.4 µM (inactive) | 37.4 µM (inactive) | 36.9 µM (inactive) | 31.4 µM (inactive)
CC(C)CCCCCCCCCCCCC(=O)NCC(=O)NC1C(O)C(O)C(Nc2[nH]cnc3ncnc2-3)OC1C(O)CO (stereo not given) | 0.000461 µM (active) | 0.000492 µM (active) | 0.000604 µM (active) | 0.000552 µM (active) | 0.426 µM (active) | 0.00114 µM (active) | 0.000472 µM (active) | 0.000508 µM (active) | 0.000753 µM (active) | 0.000575 µM (active) | 0.00199 µM (active) | 0.00403 µM (active) | 0.0316 µM (active) | 0.000519 µM (active) | 0.00359 µM (active) | 0.183 µM (active) | 0.000849 µM (active) | 0.00125 µM (active) | 0.00175 µM (active) | 0.000453 µM (active)
COC1/C=C/C(C)C(O)CC(O)/C=C/C(C)C(C(C)C(OC)C(C)CCC(=O)C(C)C(C/C=C/N(C)C=O)OC)OC(=O)/C=C/C=C(\C)CC(OC)CC2=CC(=O)O[C@@H](C(C)C(OC)C1)[C@H]2O (stereo not given in full) | < 0.005 µM (active) | 0.0267 µM (active) | < 0.005 µM (active) | < 0.005 µM (active) | 0.00736 µM (active) | < 0.005 µM (active) | < 0.005 µM (active) | < 0.005 µM (active) | < 0.005 µM (active) | < 0.005 µM (active) | 0.0103 µM (active) | 0.00656 µM (active) | 0.00588 µM (active) | 0.00665 µM (active) | 0.0233 µM (active) | < 0.005 µM (active) | < 0.005 µM (active) | 0.011 µM (active) | 0.0298 µM (active) | 0.00515 µM (active)
CCOC(=O)CCC(NC(=O)c1ccc(Oc2nc3ccccc3nc2-c2ccccc2)cc1)C(=O)OCC (stereo not given) | 15.1 µM (inactive) | 6.55 µM (inactive) | 23.1 µM (inactive) | 13.2 µM (inactive) | > 29.8 µM (inactive) | > 100 µM (inactive) | 19.5 µM (inactive) | 43.7 µM (inactive) | 30.3 µM (inactive) | 33.3 µM (inactive) | > 55 µM (inactive) | 6.34 µM (inactive) | 50.6 µM (inactive) | 32.7 µM (inactive) | 6.79 µM (inactive) | 92.9 µM (inactive) | 3.6 µM (inactive) | 17.4 µM (inactive) | 57.9 µM (inactive) | 11.2 µM (inactive)
CN(C)c1n/c(=N/Cc2ccncc2)ss1 | 17.9 µM (inactive) | 18.7 µM (inactive) | > 90.8 µM (inactive) | > 100 µM (inactive) | 6.4 µM (inactive) | > 10 µM (inactive) | 31.5 µM (inactive) | 16.4 µM (inactive) | 19.6 µM (inactive) | > 10 µM (inactive) | 22.6 µM (inactive) | > 72.8 µM (inactive) | 36.8 µM (inactive) | 30.2 µM (inactive) | 46.2 µM (inactive) | 26.1 µM (inactive) | > 46.9 µM (inactive) | 17.5 µM (inactive) | > 71.9 µM (inactive) | > 10 µM (inactive)
